Measured values: ChEMBL document CHEMBL1137017, “In vitro antiviral activity and cross-resistance profile of PL-100, a novel protease inhibitor of human immunodeficiency virus type 1” (Antimicrob Agents Chemother, 2007)

Legend:
[1] = system: Human immunodeficiency virus 1; experiment: Antiviral activity against wild type HIV1 NL4-3 in HEK293 cells after 48 hrs by replication-deffective luciferase reporter gene-based phenotypic assay; type: functional, organism-based; details: Human immunodeficiency virus 1, NL4-3, HEK293, 48 h
[2] = Cytotoxicity against human MT4 cells after 6 days by MTT assay; type: cell-based
[3] = system: Human immunodeficiency virus 1; experiment: Antiviral activity against wild type HIV1 NL4-3 infected in MT4 cells after 6 days by MTT assay; type: functional, organism-based; details: Human immunodeficiency virus 1, NL4-3, MT4, 144 h
[4] = Inhibition of pig pepsin; set-up: species or system Sus scrofa
Cathepsin D = Cathepsin D (Homo sapiens, UniProt P07339); experiment: Inhibition of human cathepsin D
Cathepsin D, sequence (P07339 65-162 limits assumed): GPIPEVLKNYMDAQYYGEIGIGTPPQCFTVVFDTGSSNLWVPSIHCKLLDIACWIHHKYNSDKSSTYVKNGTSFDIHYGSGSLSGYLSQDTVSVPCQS
Cathepsin D, sequence (P07339 169-412 limits assumed): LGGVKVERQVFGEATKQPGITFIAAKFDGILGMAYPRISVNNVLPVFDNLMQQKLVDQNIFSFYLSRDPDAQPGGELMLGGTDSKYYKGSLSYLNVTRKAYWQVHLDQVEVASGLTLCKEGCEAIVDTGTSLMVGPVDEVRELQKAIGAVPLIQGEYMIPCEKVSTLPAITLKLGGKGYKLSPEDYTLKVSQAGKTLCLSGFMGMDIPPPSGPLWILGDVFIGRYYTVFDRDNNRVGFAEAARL

Protease = Protease (Human immunodeficiency virus 1, UniProt Q9YQ12); experiment: Inhibition of HIV1 protease
Protease, sequence (Q9YQ12 whole entry): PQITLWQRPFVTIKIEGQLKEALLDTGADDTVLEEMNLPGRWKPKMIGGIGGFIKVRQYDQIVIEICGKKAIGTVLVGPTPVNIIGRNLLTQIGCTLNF

| SMILES | EC50 [1] [nM] | CC50 at 144 h [2] [nM] | EC50 [3] [nM] | IC50 [4] [nM] | IC50 (Cathepsin D) [nM] | Ki (Protease) [nM] |
| --- | --- | --- | --- | --- | --- | --- |
| CC(C)(C)NC(=O)[C@@H]1CN(Cc2cccnc2)CCN1C[C@@H](O)C[C@@H](Cc1ccccc1)C(=O)N[C@H]1c2ccccc2C[C@H]1O | 7.8 | > 100000 | 67 |  |  |  |
| Cc1cccc(C)c1OCC(=O)N[C@@H](Cc1ccccc1)[C@@H](O)C[C@H](Cc1ccccc1)NC(=O)[C@H](C(C)C)N1CCCNC1=O [LOPINAVIR] | 2.8 | 28000 | 19 |  |  |  |
| CC(C)(C)NC(=O)[C@@H]1C[C@@H]2CCCC[C@@H]2CN1C[C@@H](O)[C@H](Cc1ccccc1)NC(=O)[C@H](CC(N)=O)NC(=O)c1ccc2ccccc2n1 | 1.8 | 19000 | 12 |  |  |  |
| CC(C)c1nc(CN(C)C(=O)N[C@H](C(=O)N[C@@H](Cc2ccccc2)C[C@H](O)[C@H](Cc2ccccc2)NC(=O)OCc2cncs2)C(C)C)cs1 [RITONAVIR] |  |  | 61 |  |  |  |
| CC(C)CN(C[C@@H](O)[C@H](Cc1ccccc1)NC(=O)O[C@H]1CCOC1)S(=O)(=O)c1ccc(N)cc1 | 10.7 | > 100000 | 51 | 280 | 15200 | 0.117 |
